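1) Cells in 96-well plates. 2) Compound, 48 h, 5 concentrations. 3) Linear interpolation between surrounding doses. 4) Unreached endpoint = highest concentration. The concentration for full growth arrest is given as TGI.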

Some test systems named below: HS 578T breast; NCI-H23 lung; MDA-N; UACC-257 melanoma; SF-295 CNS; NCI-H226 lung; SW-620 colon; NCI-H460 lung; NCI/ADR-RES ovarian; ACHN renal; UACC-62 melanoma; 786-0 renal; K-562 leukemia; U251 CNS; EKVX NSCLC; MDA-MB-435; OVCAR-4 ovarian; SNB-19 CNS; KM12 colon.
Assay in all cases: DTP human tumour cell line panel, 48 h

By TGI is commonly meant the concentration at which net growth stops. A higher TGI goes with lower sensitivity of the cells. For the compound `CO/N=C(/C(=O)OC)c1ccccc1COc1cccc(C(F)(F)F)c1`, the TGI with HS 578T breast was greater than 100 µM; in the experiment on NCI-H23 lung, greater than 100 µM; in the experiment on MDA-N it was greater than 100 µM; with UACC-257 melanoma, 52.6 µM; in the experiment on SF-295 CNS it was greater than 100 µM; with NCI-H226 lung, greater than 100 µM. Further, the TGI in the experiment on SW-620 colon, in the experiment with NCI-H460 lung, in the experiment on NCI/ADR-RES ovarian, with ACHN renal, in the experiment with UACC-62 melanoma and in the experiment on 786-0 renal was greater than 100 µM in each case. Further, the concentration for total growth inhibition (TGI) in the experiment on K-562 leukemia is greater than 100 µM; with U251 CNS, greater than 100 µM; in the experiment with EKVX NSCLC it was 43.2 µM; with MDA-MB-435 it was greater than 100 µM; in the experiment with OVCAR-4 ovarian, greater than 100 µM; in the experiment with SNB-19 CNS, greater than 100 µM. Also, the concentration for total growth inhibition (TGI) with KM12 colon turned out to be 92 µM.

Regarding `Cc1ccc(CCCCCOc2ccc(C3=NCCO3)cc2)s1`, the TGI was greater than 100 µM with HS 578T breast; greater than 100 µM with NCI-H23 lung; 62.6 µM in the experiment on MDA-N; greater than 100 µM in the experiment on UACC-257 melanoma; greater than 100 µM with SF-295 CNS; greater than 100 µM in the experiment on NCI-H226 lung. Moreover, the total growth inhibition concentration (TGI) in the experiment on SW-620 colon, with NCI-H460 lung, with NCI/ADR-RES ovarian, with ACHN renal, in the experiment with UACC-62 melanoma and with 786-0 renal was greater than 100 µM each time. The TGI with K-562 leukemia, in the experiment with U251 CNS, with EKVX NSCLC, in the experiment on MDA-MB-435, in the experiment with OVCAR-4 ovarian and with SNB-19 CNS was greater than 100 µM in each case. For the same compound, in the experiment on KM12 colon, the TGI is greater than 100 µM.

Take `COC(=O)/C=C(/C(=O)OC)c1c(C)cc2c(C)cc(C)cc(C)c1-2`: the TGI is 51.1 µM in the experiment on HS 578T breast; greater than 81.1 µM in the experiment on NCI-H23 lung; 5.16 µM in the experiment with MDA-N; greater than 77.5 µM in the experiment with UACC-257 melanoma; 29.3 µM in the experiment on SF-295 CNS; 61.6 µM in the experiment with NCI-H226 lung. Also, the concentration for total growth inhibition (TGI) was greater than 100 µM with SW-620 colon; greater than 69.9 µM in the experiment with NCI-H460 lung; greater than 64.6 µM in the experiment on NCI/ADR-RES ovarian; greater than 100 µM in the experiment with ACHN renal; greater than 66.5 µM in the experiment with UACC-62 melanoma; 41.1 µM in the experiment with 786-0 renal. Besides, the concentration for total growth inhibition (TGI) was greater than 100 µM in the experiment with K-562 leukemia; 25.5 µM in the experiment on U251 CNS; greater than 95.3 µM with EKVX NSCLC; greater than 30.5 µM in the experiment on MDA-MB-435; greater than 100 µM in the experiment on OVCAR-4 ovarian; greater than 100 µM with SNB-19 CNS. In addition, the concentration for total growth inhibition (TGI) with KM12 colon is greater than 58.2 µM.

As for `COc1ccc2c(c1)N=C1CSC(c3c(Cl)cccc3[N+](=O)[O-])N1C2` (stereo not drawn), the TGI in the experiment with HS 578T breast is greater than 100 µM; with NCI-H23 lung, greater than 100 µM; in the experiment on MDA-N it was greater than 100 µM; in the experiment on UACC-257 melanoma it was greater than 100 µM; with SF-295 CNS, greater than 100 µM; with NCI-H226 lung, 84.6 µM. Further, the concentration for total growth inhibition (TGI) is greater than 100 µM in the experiment with SW-620 colon; 62.9 µM with NCI-H460 lung; greater than 100 µM in the experiment on NCI/ADR-RES ovarian; greater than 100 µM in the experiment on ACHN renal; 48.1 µM with UACC-62 melanoma; greater than 100 µM in the experiment on 786-0 renal. The TGI in the experiment with K-562 leukemia, in the experiment with U251 CNS, in the experiment with EKVX NSCLC, with MDA-MB-435, in the experiment with OVCAR-4 ovarian and in the experiment on SNB-19 CNS was greater than 100 µM in each case. The compound also came in with a concentration for total growth inhibition (TGI) in the experiment with KM12 colon greater than 100 µM.

With `O=[N+]([O-])c1ccc(NC(=S)Nc2ccccn2)cc1`, the TGI is 63 µM in the experiment on HS 578T breast; greater than 100 µM in the experiment with NCI-H23 lung; greater than 100 µM in the experiment with MDA-N; greater than 100 µM in the experiment with UACC-257 melanoma; greater than 100 µM in the experiment on SF-295 CNS; greater than 64.2 µM with NCI-H226 lung. For the same compound, the concentration for total growth inhibition (TGI) was greater than 100 µM with SW-620 colon; greater than 100 µM in the experiment on NCI-H460 lung; greater than 100 µM in the experiment with NCI/ADR-RES ovarian; greater than 100 µM with ACHN renal; greater than 100 µM in the experiment with UACC-62 melanoma; greater than 59 µM in the experiment with 786-0 renal. In addition, the TGI in the experiment with K-562 leukemia is greater than 100 µM; in the experiment with U251 CNS, greater than 100 µM; in the experiment with EKVX NSCLC it was greater than 85.6 µM; in the experiment on MDA-MB-435, greater than 100 µM; in the experiment on OVCAR-4 ovarian, greater than 100 µM; in the experiment with SNB-19 CNS, greater than 100 µM. The compound further returned a total growth inhibition concentration (TGI) in the experiment on KM12 colon greater than 55.6 µM.

`O=C1C(=C(C(=O)c2ccccc2)C(=O)c2ccccc2)OC(c2ccccc2)=C1C(=O)c1ccccc1`: the TGI was 54.3 µM with HS 578T breast; 25.8 µM with NCI-H23 lung; 77.9 µM in the experiment with MDA-N; 55.1 µM with UACC-257 melanoma; 32.1 µM in the experiment with SF-295 CNS; 16.4 µM with NCI-H226 lung. In addition, the total growth inhibition concentration (TGI) in the experiment on NCI-H460 lung turned out to be 19.2 µM; in the experiment with NCI/ADR-RES ovarian, 24.5 µM; in the experiment with ACHN renal it was 20.1 µM; in the experiment with UACC-62 melanoma, 22.8 µM; with 786-0 renal it was 20 µM; in the experiment with K-562 leukemia, 95 µM. Further, the concentration for total growth inhibition (TGI) with U251 CNS was greater than 100 µM; with EKVX NSCLC, 34.8 µM; in the experiment with MDA-MB-435, 35.4 µM; in the experiment on OVCAR-4 ovarian, 9.2 µM; in the experiment with SNB-19 CNS, greater than 100 µM; in the experiment with KM12 colon, 42.3 µM.

The values above are taken from PubChem BioAssay (NCI).
